The source of these data is patent US20250145606A1 (Arcus Biosciences, Inc., priority 2023, published 2025).

Like-named read-outs stand apart in the source and are kept apart here.

Test [1] has as its target c-Kit (Homo sapiens (Human), UniProt P10721). The test is described as follows: Inhibition of c-Kit kinase activity (HTRF KinEASE-TK). Format: biochemical. In short, it runs like this:
(§1)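 Recombinant kinases (2 nM CSF1R and c-Kit, 10 nM PDGFRα/β, 2× working) preincubated 1 h with compound in 50 mM HEPES pH 7.4, 5 mM MgCl2 (c-Kit) or 10 mM (others), 2 mM MnCl2; 2× ATP: c-Kit 16 μM, PDGFRα 1 μM, PDGFRβ 40 μM, CSF1R 20 μM. 120 min reaction at rt; TR-FRET 665/620 nm; IC50 by 4-parameter fit.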

Test [2] concerns the target PDGFRβ (Homo sapiens (Human), UniProt P09619). The test is described as follows: Inhibition of PDGFRβ kinase activity (HTRF KinEASE-TK). The settings on record: biochemical, HTRF KinEASE-TK. In short, it runs like this: as §1
(In general: TR-FRET usually uses a lanthanide donor and a delayed reading to cut background.)

The target in test [3] is PDGFRα (Homo sapiens (Human), UniProt P16234). The test is described as follows: Inhibition of PDGFRα kinase activity (HTRF KinEASE-TK). The settings on record: biochemical, HTRF KinEASE-TK. In short, it runs like this:
as §1

Test [4] addresses CSF1R (Homo sapiens (Human), UniProt P07333). The test is described as follows: Inhibition of CSF1R kinase activity (HTRF KinEASE-TK). The settings on record: biochemical, HTRF KinEASE-TK. The method in brief:
as §1

Test [5] has as its system Phospho-KIT (Y703) in M07e cells. Briefly: Phospho-KIT (Y703) cellular assay in M07e cells. Format: cell-based. The settings on record: M-07e, read-out: M07e Cell IC50. In short, it runs like this:
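Serum-starved M07e cells preincubated 50 min at 37° C with 11-point half-log compound titration, then stimulated 10 min with SCF at 90.9 ng/mL final. Fixed, permeabilized cells stained for phospho-KIT Y703 and read by flow cytometry (live-gated geometric mean); IC50 by 4-parameter fit normalized to DMSO and positive control.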

In test [6] the target is FLT3 (Homo sapiens (Human), UniProt P36888). The test is described as follows: Inhibition of FLT3 kinase activity (HTRF KinEASE-TK). Format: biochemical. The method in brief: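 FLT3 tyrosine kinase activity was measured with the HTRF KinEASE-TK kit by following phosphorylation of a biotinylated TK peptide. After the 45 min reaction, 10 μL of detection mix was added: 0.2 μM (2×) Streptavidin-XL665 and 2 μM (2×) TK-Antibody-Cryptate in detection buffer. After 60 min, TR-FRET was read on an Envision as the 665 nm/620 nm emission ratio with 320 nm excitation.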
Sequence of FLT3 (P36888 27-993): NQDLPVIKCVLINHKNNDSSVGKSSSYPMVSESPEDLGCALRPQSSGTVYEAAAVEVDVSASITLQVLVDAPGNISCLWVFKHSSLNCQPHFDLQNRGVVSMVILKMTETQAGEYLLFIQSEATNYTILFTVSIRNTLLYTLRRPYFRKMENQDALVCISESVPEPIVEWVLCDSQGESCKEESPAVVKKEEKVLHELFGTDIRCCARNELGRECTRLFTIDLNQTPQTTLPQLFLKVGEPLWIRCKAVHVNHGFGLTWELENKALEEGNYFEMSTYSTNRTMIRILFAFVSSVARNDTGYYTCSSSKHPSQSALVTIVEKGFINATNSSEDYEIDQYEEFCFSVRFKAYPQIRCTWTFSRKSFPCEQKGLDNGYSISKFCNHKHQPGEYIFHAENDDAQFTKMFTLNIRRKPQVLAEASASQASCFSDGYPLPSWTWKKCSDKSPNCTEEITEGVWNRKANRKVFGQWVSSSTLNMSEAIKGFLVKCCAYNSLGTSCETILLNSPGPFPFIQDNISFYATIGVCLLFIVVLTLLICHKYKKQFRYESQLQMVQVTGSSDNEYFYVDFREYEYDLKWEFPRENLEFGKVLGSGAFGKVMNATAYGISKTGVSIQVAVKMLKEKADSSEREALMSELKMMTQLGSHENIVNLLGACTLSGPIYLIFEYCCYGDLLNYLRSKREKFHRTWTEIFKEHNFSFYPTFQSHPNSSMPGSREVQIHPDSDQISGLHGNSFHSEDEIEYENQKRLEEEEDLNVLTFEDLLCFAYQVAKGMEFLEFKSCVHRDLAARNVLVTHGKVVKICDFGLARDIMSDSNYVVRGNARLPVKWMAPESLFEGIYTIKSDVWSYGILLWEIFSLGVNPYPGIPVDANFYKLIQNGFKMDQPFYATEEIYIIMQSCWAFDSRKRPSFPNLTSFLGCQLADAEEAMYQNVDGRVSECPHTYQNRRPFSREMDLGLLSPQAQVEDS

Sequence of CSF1R (P07333 20-972): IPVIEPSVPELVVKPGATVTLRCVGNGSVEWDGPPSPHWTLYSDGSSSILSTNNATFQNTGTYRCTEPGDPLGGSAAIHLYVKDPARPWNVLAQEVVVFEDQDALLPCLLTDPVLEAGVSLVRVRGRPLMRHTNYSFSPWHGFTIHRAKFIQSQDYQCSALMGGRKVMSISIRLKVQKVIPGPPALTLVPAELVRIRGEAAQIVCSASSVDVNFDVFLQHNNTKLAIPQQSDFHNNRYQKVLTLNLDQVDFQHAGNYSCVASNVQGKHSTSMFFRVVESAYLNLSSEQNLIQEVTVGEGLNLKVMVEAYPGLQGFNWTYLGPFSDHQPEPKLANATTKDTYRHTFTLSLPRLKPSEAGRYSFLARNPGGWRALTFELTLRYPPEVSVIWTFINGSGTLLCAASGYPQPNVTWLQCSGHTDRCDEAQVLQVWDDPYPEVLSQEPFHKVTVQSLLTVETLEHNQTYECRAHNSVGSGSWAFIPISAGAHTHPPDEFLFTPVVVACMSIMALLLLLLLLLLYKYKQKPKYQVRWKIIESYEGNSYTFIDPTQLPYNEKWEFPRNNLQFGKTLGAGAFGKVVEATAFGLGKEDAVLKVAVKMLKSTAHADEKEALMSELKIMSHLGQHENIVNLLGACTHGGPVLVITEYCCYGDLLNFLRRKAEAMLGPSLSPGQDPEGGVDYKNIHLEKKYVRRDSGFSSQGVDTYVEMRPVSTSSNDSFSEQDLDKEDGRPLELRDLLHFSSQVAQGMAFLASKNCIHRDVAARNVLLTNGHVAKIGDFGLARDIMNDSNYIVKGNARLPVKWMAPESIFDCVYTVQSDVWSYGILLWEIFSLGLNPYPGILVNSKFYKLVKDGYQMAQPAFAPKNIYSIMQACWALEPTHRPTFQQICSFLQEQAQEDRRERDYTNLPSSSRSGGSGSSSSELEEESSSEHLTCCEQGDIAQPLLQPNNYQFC
Sequence of PDGFRβ (P09619 33-1106): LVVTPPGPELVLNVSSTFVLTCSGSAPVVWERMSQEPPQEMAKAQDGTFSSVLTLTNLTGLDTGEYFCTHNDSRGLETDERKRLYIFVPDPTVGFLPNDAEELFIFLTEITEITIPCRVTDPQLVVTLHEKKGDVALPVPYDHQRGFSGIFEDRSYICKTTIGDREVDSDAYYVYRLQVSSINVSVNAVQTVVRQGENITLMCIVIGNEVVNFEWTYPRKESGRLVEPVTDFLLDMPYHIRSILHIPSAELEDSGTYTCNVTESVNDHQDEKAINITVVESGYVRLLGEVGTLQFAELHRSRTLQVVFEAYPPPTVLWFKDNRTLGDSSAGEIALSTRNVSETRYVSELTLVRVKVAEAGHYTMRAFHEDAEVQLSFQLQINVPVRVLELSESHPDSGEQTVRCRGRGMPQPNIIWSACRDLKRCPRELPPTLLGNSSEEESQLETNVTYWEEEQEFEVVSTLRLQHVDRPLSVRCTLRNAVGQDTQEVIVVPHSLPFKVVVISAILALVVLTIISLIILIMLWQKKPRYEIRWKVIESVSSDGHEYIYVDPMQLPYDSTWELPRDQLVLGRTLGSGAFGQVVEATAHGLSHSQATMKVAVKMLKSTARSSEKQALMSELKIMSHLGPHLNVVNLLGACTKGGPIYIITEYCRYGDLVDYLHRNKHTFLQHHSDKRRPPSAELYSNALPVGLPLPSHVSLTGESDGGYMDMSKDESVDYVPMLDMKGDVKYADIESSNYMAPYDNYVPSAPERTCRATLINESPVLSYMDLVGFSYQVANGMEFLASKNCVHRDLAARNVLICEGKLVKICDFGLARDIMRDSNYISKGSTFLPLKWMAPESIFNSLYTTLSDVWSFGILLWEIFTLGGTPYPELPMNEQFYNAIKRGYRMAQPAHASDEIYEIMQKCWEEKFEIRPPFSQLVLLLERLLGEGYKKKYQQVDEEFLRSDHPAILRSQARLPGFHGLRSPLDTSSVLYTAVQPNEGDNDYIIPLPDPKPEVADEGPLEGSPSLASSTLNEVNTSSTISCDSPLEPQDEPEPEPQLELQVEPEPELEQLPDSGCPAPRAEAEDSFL
Sequence of PDGFRα (P16234 24-1089): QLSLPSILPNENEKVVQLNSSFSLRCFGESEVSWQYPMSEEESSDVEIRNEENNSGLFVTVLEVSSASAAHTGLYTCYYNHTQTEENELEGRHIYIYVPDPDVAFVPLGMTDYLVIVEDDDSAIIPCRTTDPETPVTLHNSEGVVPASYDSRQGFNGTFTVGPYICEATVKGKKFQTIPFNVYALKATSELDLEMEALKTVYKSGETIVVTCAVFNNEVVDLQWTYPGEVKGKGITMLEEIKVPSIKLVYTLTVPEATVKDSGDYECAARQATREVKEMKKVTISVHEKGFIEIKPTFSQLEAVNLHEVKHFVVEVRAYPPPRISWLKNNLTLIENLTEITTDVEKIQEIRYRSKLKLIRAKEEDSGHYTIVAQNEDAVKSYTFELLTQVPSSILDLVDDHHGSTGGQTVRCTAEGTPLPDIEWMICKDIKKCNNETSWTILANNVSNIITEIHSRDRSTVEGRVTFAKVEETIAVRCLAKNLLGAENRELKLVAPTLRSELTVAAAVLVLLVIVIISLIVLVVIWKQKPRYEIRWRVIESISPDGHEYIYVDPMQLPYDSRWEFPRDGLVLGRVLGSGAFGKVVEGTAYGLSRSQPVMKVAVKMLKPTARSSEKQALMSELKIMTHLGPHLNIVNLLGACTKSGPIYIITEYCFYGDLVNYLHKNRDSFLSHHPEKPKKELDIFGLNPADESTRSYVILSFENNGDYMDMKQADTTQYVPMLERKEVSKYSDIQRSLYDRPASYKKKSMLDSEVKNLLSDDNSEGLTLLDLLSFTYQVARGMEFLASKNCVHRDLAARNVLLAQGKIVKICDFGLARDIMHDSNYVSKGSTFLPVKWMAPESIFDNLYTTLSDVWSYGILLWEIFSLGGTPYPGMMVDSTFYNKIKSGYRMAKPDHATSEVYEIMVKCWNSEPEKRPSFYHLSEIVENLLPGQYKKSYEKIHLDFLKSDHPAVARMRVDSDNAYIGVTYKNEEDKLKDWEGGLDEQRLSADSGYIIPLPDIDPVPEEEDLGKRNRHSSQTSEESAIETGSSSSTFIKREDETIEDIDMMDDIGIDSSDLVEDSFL
Sequence of c-Kit (P10721 26-976): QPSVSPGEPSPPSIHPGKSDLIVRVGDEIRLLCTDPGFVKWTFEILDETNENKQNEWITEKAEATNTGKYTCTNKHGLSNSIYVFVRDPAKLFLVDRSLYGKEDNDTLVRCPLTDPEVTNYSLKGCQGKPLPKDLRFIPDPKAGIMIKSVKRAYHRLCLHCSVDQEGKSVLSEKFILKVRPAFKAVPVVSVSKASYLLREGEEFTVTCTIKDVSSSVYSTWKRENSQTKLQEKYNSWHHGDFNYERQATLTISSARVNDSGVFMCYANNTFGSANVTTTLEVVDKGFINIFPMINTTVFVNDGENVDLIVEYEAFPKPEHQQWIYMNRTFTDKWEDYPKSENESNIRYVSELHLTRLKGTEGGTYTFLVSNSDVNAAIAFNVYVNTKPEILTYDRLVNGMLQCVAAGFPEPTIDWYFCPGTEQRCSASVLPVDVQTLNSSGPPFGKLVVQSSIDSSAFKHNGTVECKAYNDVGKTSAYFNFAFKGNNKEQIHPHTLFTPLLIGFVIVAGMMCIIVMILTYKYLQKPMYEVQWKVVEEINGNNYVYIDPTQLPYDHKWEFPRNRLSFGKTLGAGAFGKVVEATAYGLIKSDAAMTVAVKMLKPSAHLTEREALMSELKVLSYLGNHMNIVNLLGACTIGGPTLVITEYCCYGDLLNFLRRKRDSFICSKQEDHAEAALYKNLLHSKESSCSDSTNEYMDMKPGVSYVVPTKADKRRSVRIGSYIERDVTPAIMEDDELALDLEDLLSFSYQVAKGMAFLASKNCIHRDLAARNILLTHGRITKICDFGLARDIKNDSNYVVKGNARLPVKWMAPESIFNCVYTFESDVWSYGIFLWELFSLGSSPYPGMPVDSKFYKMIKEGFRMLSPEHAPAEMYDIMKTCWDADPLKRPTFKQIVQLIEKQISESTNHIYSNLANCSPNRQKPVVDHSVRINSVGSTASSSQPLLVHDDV

For `Cc1cc(F)c(C(=O)Nc2ccccn2)cc1NC(=O)c1cnc(N)s1` [Example 132, 2-Amino-N-[4-fluoro-2-methyl-5-(pyridin-2-ylcarbamoyl)phenyl]-1,3-thiazole-5-carboxamide], the IC50 in test [1] (biochemical, HTRF KinEASE-TK) is < 100 nM; in test [2] it was > 1000 nM; in test [3], > 1000 nM; in test [4] it was > 1000 nM; in test [5] (Phospho-KIT (Y703), M07e cells), < 100 nM; in test [6] (biochemical, HTRF KinEASE-TK), > 1000 nM.

Consider `Cc1ccc(NC(=O)c2cc(NC(=O)c3cnc(N)s3)c(C)cc2F)nc1` [Example 133, 2-Amino-N-[4-fluoro-2-methyl-5-[(5-methylpyridin-2-yl)carbamoyl]phenyl]-1,3-thiazole-5-carboxamide], for which the IC50 in test [1] (biochemical, HTRF KinEASE-TK) was < 100 nM; in test [2], > 1000 nM; in test [3] it was > 1000 nM; in test [4], > 1000 nM; in test [5] (Phospho-KIT (Y703), M07e cells), < 100 nM; in test [6] (biochemical, HTRF KinEASE-TK) it was > 1000 nM.

For the compound `Cc1cc(F)c(C(=O)Nc2ccc(OC3CCC3)cn2)cc1NC(=O)c1cnc(N)s1` [Example 134, 2-Amino-N-[5-[(5-cyclobutyloxypyridin-2-yl)carbamoyl]-4-fluoro-2-methylphenyl]-1,3-thiazole-5-carboxamide], the IC50 in test [1] (biochemical, HTRF KinEASE-TK) is < 100 nM; in test [2], < 100 nM; in test [3], 100 to 1000 nM; in test [4], 100 to 1000 nM; in test [5] (Phospho-KIT (Y703), M07e cells), < 100 nM; in test [6] (biochemical, HTRF KinEASE-TK), > 1000 nM.

Take `Cc1cc(F)c(C(=O)Nc2ccc(C3CC3)nn2)cc1NC(=O)c1cnc(N)s1` [Example 135, 2-Amino-N-[5-[(6-cyclopropylpyridazin-3-yl)carbamoyl]-4-fluoro-2-methylphenyl]-1,3-thiazole-5-carboxamide]: the IC50 in test [1] (biochemical, HTRF KinEASE-TK) was < 100 nM; in test [2], < 100 nM; in test [3], 100 to 1000 nM; in test [4], 100 to 1000 nM; in test [5] (Phospho-KIT (Y703), M07e cells) it was < 100 nM; in test [6] (biochemical, HTRF KinEASE-TK), > 1000 nM.

Take `Cc1cc(F)c(C(=O)Nc2ccn(C3CC(F)(F)C3)n2)cc1NC(=O)c1cnc(N)s1` [Example 139, 2-Amino-N-[5-[[1-(3,3-difluorocyclobutyl)pyrazol-3-yl]carbamoyl]-4-fluoro-2-methylphenyl]-1,3-thiazole-5-carboxamide]: the IC50 in test [1] (biochemical, HTRF KinEASE-TK) was < 100 nM; in test [2], 100 to 1000 nM; in test [3], 100 to 1000 nM; in test [4] it was > 1000 nM; in test [5] (Phospho-KIT (Y703), M07e cells), < 100 nM; in test [6] (biochemical, HTRF KinEASE-TK), > 1000 nM.

On to `Cc1cc(F)c(C(=O)Nc2ccc(OC(C)C)cn2)cc1NC(=O)c1cnc(N)s1` [Example 140, 2-Amino-N-[4-fluoro-2-methyl-5-[(5-propan-2-yloxypyridin-2-yl)carbamoyl]phenyl]-1,3-thiazole-5-carboxamide], for which the IC50 in test [1] is < 100 nM; in test [2], 100 to 1000 nM; in test [3] it was 100 to 1000 nM; in test [4] it was 100 to 1000 nM; in test [5] it was < 100 nM; in test [6], > 1000 nM.

Consider `Cc1cc(F)c(C(=O)Nc2ccn(CC(C)C)n2)cc1NC(=O)c1cnc(N)s1` [Example 142, 2-Amino-N-[4-fluoro-2-methyl-5-[[1-(2-methylpropyl)pyrazol-3-yl]carbamoyl]phenyl]-1,3-thiazole-5-carboxamide], for which the IC50 in test [1] (biochemical, HTRF KinEASE-TK) was < 100 nM; in test [2], 100 to 1000 nM; in test [3], 100 to 1000 nM; in test [4], > 1000 nM; in test [5] (Phospho-KIT (Y703), M07e cells), < 100 nM; in test [6] (biochemical, HTRF KinEASE-TK), > 1000 nM.

`Cc1cc(F)c(C(=O)Nc2ccc(OCC3CC3)cn2)cc1NC(=O)c1cnc(N)s1` [Example 143, 2-Amino-N-[5-[[5-(cyclopropylmethoxy)pyridin-2-yl]carbamoyl]-4-fluoro-2-methylphenyl]-1,3-thiazole-5-carboxamide]: the IC50 is < 100 nM in test [1] (biochemical, HTRF KinEASE-TK); 100 to 1000 nM in test [2]; > 1000 nM in test [3]; > 1000 nM in test [4]; < 100 nM in test [5] (Phospho-KIT (Y703), M07e cells); > 1000 nM in test [6] (biochemical, HTRF KinEASE-TK).

For the compound `Cc1cc(F)c(C(=O)Nc2ccc(OC3(C)CC3)cn2)cc1NC(=O)c1cnc(N)s1` [Example 147, 2-Amino-N-[4-fluoro-2-methyl-5-[[5-(1-methylcyclopropyl)oxypyridin-2-yl]carbamoyl]phenyl]-1,3-thiazole-5-carboxamide], the IC50 in test [1] (biochemical, HTRF KinEASE-TK) was < 100 nM; in test [2] it was < 100 nM; in test [3] it was 100 to 1000 nM; in test [4], 100 to 1000 nM; in test [5] (Phospho-KIT (Y703), M07e cells), < 100 nM; in test [6] (biochemical, HTRF KinEASE-TK), > 1000 nM.

Take `Cc1cc(F)c(C(=O)Nc2ccn(CC(F)F)n2)cc1NC(=O)c1cnc(N)s1` [Example 148, 2-Amino-N-[5-[[1-(2,2-difluoroethyl)pyrazol-3-yl]carbamoyl]-4-fluoro-2-methylphenyl]-1,3-thiazole-5-carboxamide]: the IC50 is < 100 nM in test [1] (biochemical, HTRF KinEASE-TK); 100 to 1000 nM in test [2]; > 1000 nM in test [3]; > 1000 nM in test [4]; < 100 nM in test [5] (Phospho-KIT (Y703), M07e cells); > 1000 nM in test [6] (biochemical, HTRF KinEASE-TK).

With `Cc1cc(F)c(C(=O)Nc2ccn([C@@H]3CCOC3)n2)cc1NC(=O)c1cnc(N)s1` [Example 149, 2-Amino-N-[4-fluoro-2-methyl-5-[[1-[(3R)-oxolan-3-yl]pyrazol-3-yl]carbamoyl]phenyl]-1,3-thiazole-5-carboxamide], the IC50 in test [1] (biochemical, HTRF KinEASE-TK) is < 100 nM; in test [2], 100 to 1000 nM; in test [3], > 1000 nM; in test [4], > 1000 nM; in test [5] (Phospho-KIT (Y703), M07e cells) it was < 100 nM; in test [6] (biochemical, HTRF KinEASE-TK) it was > 1000 nM.

For `Cc1cc(F)c(C(=O)Nc2ccn(C3CCOCC3)n2)cc1NC(=O)c1cnc(N)s1` [Example 150, 2-Amino-N-[4-fluoro-2-methyl-5-[[1-(oxan-4-yl)pyrazol-3-yl]carbamoyl]phenyl]-1,3-thiazole-5-carboxamide], the IC50 in test [1] (biochemical, HTRF KinEASE-TK) is < 100 nM; in test [2], > 1000 nM; in test [3], > 1000 nM; in test [4] it was > 1000 nM; in test [5] (Phospho-KIT (Y703), M07e cells), < 100 nM; in test [6] (biochemical, HTRF KinEASE-TK), > 1000 nM.

Consider `Cc1cc(F)c(C(=O)Nc2ccc(OC3CC3)c(C)n2)cc1NC(=O)c1cnc(N)s1` [Example 152, 2-Amino-N-[5-[(5-cyclopropyloxy-6-methylpyridin-2-yl)carbamoyl]-4-fluoro-2-methylphenyl]-1,3-thiazole-5-carboxamide], for which the IC50 is < 100 nM in test [1] (biochemical, HTRF KinEASE-TK); 100 to 1000 nM in test [2]; 100 to 1000 nM in test [3]; > 1000 nM in test [4]; < 100 nM in test [5] (Phospho-KIT (Y703), M07e cells); > 1000 nM in test [6] (biochemical, HTRF KinEASE-TK).

`Cc1cc(F)c(C(=O)Nc2ccn(C3CCC3)n2)cc1NC(=O)c1cnc(N)s1` [Example 155, 2-Amino-N-[5-[(1-cyclobutylpyrazol-3-yl)carbamoyl]-4-fluoro-2-methylphenyl]-1,3-thiazole-5-carboxamide]: the IC50 is < 100 nM in test [1] (biochemical, HTRF KinEASE-TK); 100 to 1000 nM in test [2]; 100 to 1000 nM in test [3]; > 1000 nM in test [4]; < 100 nM in test [5] (Phospho-KIT (Y703), M07e cells); > 1000 nM in test [6] (biochemical, HTRF KinEASE-TK).

With `Cc1cc(F)c(C(=O)Nc2cc3n(n2)CCC3)cc1NC(=O)c1cnc(N)s1` [Example 156, 2-Amino-N-[5-(5,6-dihydro-4H-pyrrolo[1,2-b]pyrazol-2-ylcarbamoyl)-4-fluoro-2-methylphenyl]-1,3-thiazole-5-carboxamide], the IC50 was < 100 nM in test [1] (biochemical, HTRF KinEASE-TK); 100 to 1000 nM in test [2]; > 1000 nM in test [3]; > 1000 nM in test [4]; < 100 nM in test [5] (Phospho-KIT (Y703), M07e cells); > 1000 nM in test [6] (biochemical, HTRF KinEASE-TK).

Consider `Cc1cc(F)c(C(=O)Nc2ccn(C(C)C)n2)cc1NC(=O)c1cnc(N)s1` [Example 158, 2-Amino-N-[4-fluoro-2-methyl-5-[(1-propan-2-ylpyrazol-3-yl)carbamoyl]phenyl]-1,3-thiazole-5-carboxamide], for which the IC50 in test [1] (biochemical, HTRF KinEASE-TK) is < 100 nM; in test [2], 100 to 1000 nM; in test [3], 100 to 1000 nM; in test [4] it was > 1000 nM; in test [5] (Phospho-KIT (Y703), M07e cells), < 100 nM; in test [6] (biochemical, HTRF KinEASE-TK), > 1000 nM.

Consider `Cc1cc(F)c(C(=O)Nc2ccn(C3CC3)n2)cc1NC(=O)c1cnc(N)s1` [Example 159, 2-Amino-N-[5-[(1-cyclopropylpyrazol-3-yl)carbamoyl]-4-fluoro-2-methylphenyl]-1,3-thiazole-5-carboxamide], for which the IC50 in test [1] (biochemical, HTRF KinEASE-TK) is < 100 nM; in test [2] it was > 1000 nM; in test [3], > 1000 nM; in test [4], > 1000 nM; in test [5] (Phospho-KIT (Y703), M07e cells), < 100 nM; in test [6] (biochemical, HTRF KinEASE-TK), > 1000 nM.

Turning to `Cc1cc(F)c(C(=O)Nc2ccn(-c3ccccc3)n2)cc1NC(=O)c1cnc(N)s1` [Example 172, 2-Amino-N-[4-fluoro-2-methyl-5-[(1-phenylpyrazol-3-yl)carbamoyl]phenyl]-1,3-thiazole-5-carboxamide], the IC50 was < 100 nM in test [1] (biochemical, HTRF KinEASE-TK); > 1000 nM in test [2]; > 1000 nM in test [3]; > 1000 nM in test [4]; < 100 nM in test [5] (Phospho-KIT (Y703), M07e cells); > 1000 nM in test [6] (biochemical, HTRF KinEASE-TK).

What is called IC50 is the concentration at which inhibition is half-maximal.
